The source of these data is PMC9867837 (Cancer letters, 2022).

The inhibition is the percentage by which the read-out fell short of the control. Broadly, the fraction remaining is the share of the starting amount still present when the sample was taken. Low readings indicate a greater loss, high ones greater stability.

The target of data set [1] is T1, CYP2C9 (Homo sapiens, UniProt P11712).
T1 construct: Eurofins-CEREP (contract research organisation that ran the assay)
The experiment in a line: CYP inhibition, CYP2C9. The data set is classed as in vitro ADME. The following applies: read-out: CYP Inhibition CYP2C9 % Inh at 10 μM. As for the experimental part: (§1) The in vivo activity of a compound is influenced by its overall bioavailability, which is also driven by parameters, such as solubility, permeability, and metabolism. […] These values are all above the industry cut-off of 60 μg/ml. […] It has CLint in human hepatocytes of 16 μL/min/10^6 cells, which falls into moderate stability range [43].

The test system of data set [2] is c-Myc, survivin and vascular endothelial growth factor (VEGF). The experiment in a line: Immunoblotting for Stat3 downstream genes in cells. Type of data set: cell-based, human. As to conditions: MDA-MB-231, doses that inhibit Stat3 activity. As for the experimental part:
These studies were performed as previously described. Details are presented in Supplementary Information, “Methods”.
Aberrantly-active Stat3 promotes tumor cell growth and proliferation, survival, migration, invasion, and metastasis.
These studies were performed as previously described [1 -3] . Briefly, snap-frozen tumor tissues or cultured cells treated or not were harvested and whole-cell or tissue lysates were prepared in radioimmunoprecipitation assay (RIPA) buffer. Samples of equal total protein were subjected to SDS - PAGE and immunoblotting analysis. Primary antibodies used were anti- Stat3, pY705-Stat3, pS727Stat3, […]
Akt, pT202/Y204Erk1/2 (p44/42), Erk1/2, PARP , caspase 3, c-Myc, survivin, VEGF, β-actin, α/β-tubulin, and GAPDH. For the studies of the effects of cell density and confluence on pY705Stat3, cells were seeded […] in culture dishes. The next day, cells were untreated (DMSO control, […]
0.1%) or treated at the same time with 1 or 2 µM H182, allowed to incubate for the indicated time and then harvested for whole-cell lysate preparation and SDS -PAGE / immunoblotting analy sis. […]
concentration of H182 for 6 h and then treated with 0- 100 nM docetaxel or 0-20 µM cisplatin for a total of 72 h. Viable cell numbers were assessed by a CyQuant cell proliferation kit according to the manufacturer’s instructions (Thermo/Life Technologies Corp, Carlsbad, CA). […]
(Immunoblotting shows a protein as a band on a membrane.)

Data set [3] in a line: Plasma stability, mouse. Type of data set: in vitro ADME. As for the experimental part: Solubility, human (HLM) and mouse liver microsomal (MLM), and plasma stability studies were performed by Eurofins Cerep Panlabs and Eurofin Discovery Services (www.eurofins.com/PharmaDiscovery), while protein binding studies were performed by Sanford Burnham Prebys Chemical Biology & Drug Discovery Core using standard protocols.

The target in data set [4] is T2, hERG (Homo sapiens, UniProt Q12809).
T2 construct: Eurofins-CEREP (contract research organisation that ran the assay)
T2 sequence (Q12809 whole entry): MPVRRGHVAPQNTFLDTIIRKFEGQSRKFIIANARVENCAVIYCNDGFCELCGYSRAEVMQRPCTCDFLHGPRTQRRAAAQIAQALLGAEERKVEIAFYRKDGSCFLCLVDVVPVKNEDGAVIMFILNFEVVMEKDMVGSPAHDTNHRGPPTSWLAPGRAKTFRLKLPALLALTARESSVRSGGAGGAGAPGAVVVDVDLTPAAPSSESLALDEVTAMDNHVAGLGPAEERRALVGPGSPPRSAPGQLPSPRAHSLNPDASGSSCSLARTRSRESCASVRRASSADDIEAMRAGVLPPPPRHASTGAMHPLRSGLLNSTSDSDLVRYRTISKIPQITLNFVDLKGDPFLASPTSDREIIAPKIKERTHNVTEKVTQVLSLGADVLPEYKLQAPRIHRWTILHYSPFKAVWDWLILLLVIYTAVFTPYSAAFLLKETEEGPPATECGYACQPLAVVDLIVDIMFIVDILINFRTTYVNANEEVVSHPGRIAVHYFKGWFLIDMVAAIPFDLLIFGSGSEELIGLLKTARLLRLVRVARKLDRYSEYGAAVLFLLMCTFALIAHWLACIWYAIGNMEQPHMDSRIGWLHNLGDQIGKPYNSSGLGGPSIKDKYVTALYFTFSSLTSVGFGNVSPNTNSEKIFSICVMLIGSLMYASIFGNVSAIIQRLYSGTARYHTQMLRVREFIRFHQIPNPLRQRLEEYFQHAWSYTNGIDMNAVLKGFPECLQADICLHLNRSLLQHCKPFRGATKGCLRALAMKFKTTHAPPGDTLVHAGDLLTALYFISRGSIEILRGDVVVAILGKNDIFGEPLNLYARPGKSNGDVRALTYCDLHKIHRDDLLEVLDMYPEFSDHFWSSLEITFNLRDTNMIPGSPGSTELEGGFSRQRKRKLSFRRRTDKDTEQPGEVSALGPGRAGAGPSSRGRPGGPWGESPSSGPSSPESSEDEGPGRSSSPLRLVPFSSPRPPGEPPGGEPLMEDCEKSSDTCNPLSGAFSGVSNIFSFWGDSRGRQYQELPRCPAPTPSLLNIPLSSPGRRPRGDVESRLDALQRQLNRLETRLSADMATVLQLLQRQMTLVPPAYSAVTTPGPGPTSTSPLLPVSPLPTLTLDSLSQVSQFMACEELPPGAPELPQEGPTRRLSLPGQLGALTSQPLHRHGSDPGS
In words: CEREP SafetyScreen44, hERG. Type of data set: binding. As to conditions: 10 μM H182. As for the experimental part:
as §1
Background: hERG is a cardiac potassium channel; its block is linked to QT prolongation.

T1 sequence (P11712 whole entry, species assumed): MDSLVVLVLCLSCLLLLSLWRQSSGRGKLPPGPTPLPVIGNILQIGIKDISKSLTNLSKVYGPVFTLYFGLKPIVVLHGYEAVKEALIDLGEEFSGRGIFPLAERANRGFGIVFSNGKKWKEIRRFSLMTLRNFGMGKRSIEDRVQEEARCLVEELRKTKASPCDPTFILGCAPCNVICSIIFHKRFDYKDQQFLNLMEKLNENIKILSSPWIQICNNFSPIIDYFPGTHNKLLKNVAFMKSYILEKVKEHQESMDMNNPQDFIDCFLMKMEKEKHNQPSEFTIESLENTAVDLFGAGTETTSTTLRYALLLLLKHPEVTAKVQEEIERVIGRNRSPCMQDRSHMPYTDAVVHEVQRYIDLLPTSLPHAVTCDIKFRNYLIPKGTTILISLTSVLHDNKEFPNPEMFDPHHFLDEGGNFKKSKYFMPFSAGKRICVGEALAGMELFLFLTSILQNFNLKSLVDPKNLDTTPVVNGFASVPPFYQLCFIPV

For `O=C([C@H]1CCN1S(=O)(=O)c1c(F)c(F)c(F)c(F)c1F)N(Cc1ccc(C2CCCCC2)cn1)c1ccc2c(=O)[nH]ncc2c1` [Compound H182], the inhibition at 10 µM in data set [1] was 33%; in data set [4] it was greater than 80%. Further, the “Expression of c-Myc, survivin and VEGF in cells” value in data set [2] is reported as “rapidly suppressed”. This compound also returned a fraction remaining at 1 h in data set [3] (1 h) of 69%. This compound showed an amount remaining at 2 h in data set [3] (2 h) of 23%.
